The results in this text go back to PMC8745710, “Biological Evaluation and Molecular Docking Studies of Novel 1,3,4-Oxadiazole Derivatives of 4,6-Dimethyl-2-sulfanylpyridine-3-carboxamide” (International Journal of Molecular Sciences, 2022).

Where two headings read alike, the source gives them in different places.

Test [1] relates to NHDF (normal human dermal fibroblasts). Nature of the test: MTT assay, NHDF. The note with it: 48 h incubation, read-out: IC50 [µM] ± SD NHDF. Format: cell-based. The text has this: (§1) The MTT (3-[4,5-dimethylthiazol-2-yl]-2,5-diphenyl tetrazolium bromide) assay was used to determine the cytotoxicity of tested compounds towards different cell lines: normal human dermal fibroblasts (NHDF), kidney epithelial cells (VERO), fibroblasts from Chinese hamster lung (V79) and four human cancer cells: A549 (pulmonary basal cell alveolar adenocarcinoma), MCF-7 (breast adenocarcinoma), LoVo (colon adenocarcinoma), and its drug resistant subline LoVo/Dx. The cell lines used in this study express COX-1 and COX-2. The LoVo line expressed COX-1, the LoVo/Dx subline express both COX-1 and COX-2 [61].
(§2) Each cell line was grown in the culture media recommended by supplier. Before the test they were detached with trypsin/EDTA solution, then to neutralize the effect of Trypsin/EDTA solution, FBS containing medium was used. After centrifugation the cells were stained with 0.4% solution of trypan blue, counted and inspected for viability using microscope. In the end, cells were inserted into 96-well culture plates and incubated in CO2 incubator (37 °C, 24 h). The number of cells was 2 × 10^3 cells per well. The tested compounds with different concentrations (5, 10, 20, 50, 100 µM) were dissolved in DMSO and then added to the cells (the final DMSO concentration was 0.1%). The cultures were incubated for another 48 h. After that time the cells were collected to be used in tests.
(§3) MTT assay was used to find out how tested compounds influence the metabolic activity of investigated cell lines. The cells were incubated with tested compounds. After removing of supernatant, 1 mg/mL of MTT solution in MEM was added to the plate (to each well) and then the plates were incubated at 37 °C for 2 h. The medium was removed again, and formazan crystals were dissolved in isopropanol. A Varioscan LUX microplate reader (Thermo Fisher Scientific, Waltham, MA, USA) was used to measure absorbance at 570 nm.

Test [2] relates to VERO (kidney epithelial cells). As to the kind of experiment: MTT assay, VERO. The following applies: 48 h incubation. Format: cell-based.
Source text: as §1, §2, §3

Test [3] deals with V79 (fibroblasts from Chinese hamster lung). As to the kind of experiment: MTT assay, V79. Format: cell-based. The following applies: Cricetulus griseus, Fibroblast, 48 h incubation, read-out: IC50 [µM] ± SD V79.
Source text: as §1, §2, §3

Test [4] has as its system A549 (pulmonary basal cell alveolar adenocarcinoma). As to the kind of experiment: MTT assay, A549. Format: cell-based. The following applies: Homo sapiens, 48 h incubation, read-out: IC50 [µM] ± SD A549.
Source text: as §1, §2, §3

Test [5] relates to LoVo (colon adenocarcinoma). Nature of the test: MTT assay, LoVo. It is filed as cell-based. The note with it: Homo sapiens, 48 h incubation, read-out: IC50 [µM] ± SD LoVo.
Source text: as §1, §2, §3

In test [6] the test system is LoVo/Dx (drug resistant subline of LoVo). Nature of the test: MTT assay, LoVo/Dx. Format: cell-based. The following applies: Homo sapiens, 48 h incubation, read-out: IC50 [µM] ± SD LoVo/Dx.
Source text: as §1
as §2, with “In the end, cells were inserted into 96-well culture plates and incubated in CO2 incubator (37 °C, 24 h).” left out
MTT assay was used to find out how tested compounds influence the metabolic activity of investigated cell lines. The cells were incubated with tested compounds. […] The medium was removed again, and formazan crystals were dissolved in isopropanol.

In a further test the test system is V79 cell line. Nature of the test: Intracellular ROS level (DCFH-DA), V79 cells. Format: cell-based, Chinese hamster. The note with it: Cricetulus griseus, 4 h, V79, compound 100 μM. As to the method: (§4) Two cell lines were chosen for investigations: V79 (Chinese hamster lung fibroblasts) and LoVo. V79 normal cells are widely used as the cell line tested in the studies of the oxidative stress. These cells are a living system model to explain the mechanism of ROS effects caused by varied compounds [73].
(§5) First, the tested compounds (in concentration of 100 μM) were added to the cell cultures and cells were incubated for 4 h. Then cells were washed and incubated with DCFH-DA (non-fluorescent probe) in dark at 37 °C for 2 h at CO2 [79]. Non-fluorescent, non-polar DCFH-DA (2′7′-dichlorodihydrofluorescein diacetate) at concentration of 25 μM was used as a marker of oxidative stress to determine the intracellular ROS levels. […] In this time, DCFH-DA which penetrated into the cells, was hydrolyzed by esterases to polar, non-fluorescent DCFH (2′7′-dichlorodihydrofluorescein) and then oxidized in the presence of ROS (reactive oxygen species) to fluorescent DCF (2′7′-dichlorofluorescein). DCF was measured using Varioscan LUX microplate reader (Thermo Fisher Scientific, Waltham, MA, USA) at λex = 485 nm and λem = 535 nm. Then results were presented as E/E0 where E is test sample value and E0—control value.
[…] E is the culture with the tested compound and E0 is the negative control without the compound. The routine statistical methods: two-way analysis of variance ANOVA as well as Tukey’s post-hoc test were used. It allowed us to determine the statistical significance of results, where p < 0.05 was set as significant. The statistical indicators were estimated using Statistica 13.3 software.

A further test concerns LoVo cell line. Nature of the test: Intracellular ROS level (DCFH-DA), LoVo cells. It is filed as cell-based. The following applies: Homo sapiens, 4 h, compound 100 μM. As to the method:
as §4
as §5, with “nm.” for “nm. Then results were presented as E/E0 where E is test sample value and E0—control value.”
E is the culture with the tested compound and E0 is the negative control without the compound. The routine statistical methods: two-way analysis of variance ANOVA as well as Tukey’s post-hoc test were used. It allowed us to determine the statistical significance of results, where p < 0.05 was set as significant. The statistical indicators were estimated using Statistica 13.3 software.

Where [7] appears, read: with H2O2 (100 μM, 30 min), n = 5, read-out: ROS scavenging activity, Mean E/E0 ± SD, with H2O2.
[8] abbreviates: without H2O2, n = 5, read-out: ROS scavenging activity, Mean E/E0 ± SD, without H2O2.

Take `CN1C(C(=O)Nc2ccccn2)=C(O)c2ccccc2S1(=O)=O` [Piroxicam, piroxicam, reference compound]: the IC50 was 162 ± 22.9 µM in test [1]; 213 ± 23.2 µM in test [3]; 110 ± 28.2 µM in test [4]; 122 ± 10.2 µM in test [5]; 126 ± 11.2 µM in test [6]. Also, the “IC50 [µM] ± SD VERO” value in test [2] was “no toxicity”. The activity at 100 µM in the test with V79 cell line (setting [7]) is 67 ± 17%; in the test on V79 cell line (setting [8]), 98 ± 17%; in the test on LoVo cell line (setting [7]), 81 ± 19%; in the test with LoVo cell line (setting [8]) it was 72 ± 19%.
On to `O=C1O[C@H]([C@@H](O)CO)C(O)=C1O` [Ascorbic acid, ascorbic acid, reference compound], for which the activity at 100 µM amounted to 22 ± 12% in the test with V79 cell line (setting [7]), 83 ± 13% in the test with V79 cell line (setting [8]), 32 ± 9% in the test on LoVo cell line (setting [7]) and 89 ± 11% with LoVo cell line (setting [8]).
Taken in the same sequence, the figures for `Cc1c(C)c2c(c(C)c1O)CCC(C)(C(=O)O)O2` (stereo not shown) [Trolox, trolox, reference compound] were 15 ± 8%, 71 ± 5%, 29 ± 15% and 85 ± 13%.
For the compound `Cc1cnc(NC(=O)C2=C(O)c3ccccc3S(=O)(=O)N2C)s1` [Meloxicam, meloxicam, reference compound], the IC50 in test [1] was found to be 196 ± 35.2 µM; in test [3], 201 ± 17.8 µM; in test [6], 142 ± 9.46 µM. Also, the “IC50 [µM] ± SD VERO” value in test [2] is given as “no toxicity”. Further, the results for the activity at 100 µM with V79 cell line (setting [7]), with V79 cell line (setting [8]) and in the test with LoVo cell line (setting [7]) were 85 ± 18%, 115 ± 19% and 89 ± 16%, respectively.
